Data reported in patent US8362071B2, “Antiadhesion agents” (The Ohio State University Research Foundation, priority 2009, dated 2013).
“Also recorded” adds a separate entry of the source. Where two headings read alike, the source gives them in different places.

Columns and labels:
breast tumor = conditions: animal models; Hahn et al. 2006; cited from earlier work
4T1 cells [1] = test: Transwell (Boyden chamber) migration assay, serum-induced; assay type: cell-based, mouse; conditions: FIG. 3A
Procedure: Migration Assay. 4T1 cells were trypsinized for 5 min, washed, and suspended in 0.2% FBS-supplemented RPMI 1640 medium. Five×10^4 cells in 0.5 ml of 0.2% FBS-supplemented RPMI medium containing individual test agents at the indicated concentrations were added to the upper chamber (i.e., insert) of each Transwell system (12 mm, polycarbonate, 12-μm pore, Millipore) in a 24-well plate, and incubated at 37° C. in a CO2 incubator for 30 min. The inserts were then switched to a new well containing 10% FBS-supplemented RPMI 1640 medium for 24 h. All cells in each well were fixed with 10% formalin followed by staining with 0.5% crystal violet. To quantify migrated cells, cells attached to the bottom side of the upper chamber and in the bottom of the well were wiped with a moistened cotton swab, which was then rinsed with 80 μl DDW. The cells were then dissolved by the addition of 320 μl 100% methanol. Enumeration of non-migrated cells was done by placing the chamber into 400 μl of 80% methanol, and incubating for 30 min in an orbital shaker. Absorbance at 570 nm was measured in an ELISA plate reader. Percentage of cell migration in each well was calculated using the following equation: % of migration=100×[(O.D. of migrated cells)−(O.D. of background)]/{[(O.D. of migrated cells)−(O.D. of background)]+[(O.D. of non-migrated cells)−(O.D. of background)]}. The migration activity in each treatment group is expressed as a percentage of that in the vehicle controls, which was considered to be 100%.

[2] = system: 4T1 metastatic breast cancer cells; test: Adhesion assay: 4T1 cell adhesion to a Matrigel-coated surface; assay type: cell-based, mouse; conditions: for anti-adhesion potency (in words) / anti-adhesion activity relative to VES (FIG. 2A, in words): 4T1 cells, Matrigel-coated surface; for anti-adhesion activity relative to VES (FIG. 2A, in words): each at 5 μM
Procedure: Adhesion Assay. Ninety six-well plates were coated with 12% (v/v) Matrigel (BD Biosciences) at 37° C. for 1 hour, washed twice with washing buffer (0.1% BSA-containing RPMI medium) followed by blocking with 0.5% BSA-containing RPMI medium at 37° C. for 60 minutes. 4T1 cells were treated with individual derivatives at the indicated concentrations at 37° C. in a CO2 incubator for 60 minutes, and 2×10^4 cells in 100 μl were seeded in each well. Cells were allowed to adhere to the Matrigel-coated surface for 30 min at 37° C., and nonadherent cells were removed by gentle washing with the aforementioned washing buffer. Adherent cells were fixed with 10% formalin, stained with 0.5% crystal violet, and dissolved in 2% SDS. Absorbance at 570 nm was measured in an ELISA plate reader (Molecular device, Sunnyvale, Calif.).

[3] = system: focal adhesion kinase (FAK); test: FAK protein stability by Western blotting; assay type: cell-based, mouse; conditions: each at 5 μM, 4T1 cells, 1 h
Procedure: (§1) VES derivatives target focal adhesion kinase (FAK) degradation. Considering the important role of FAK in regulating the formation of focal adhesions and actin stress fibers (McLean et al., Nat Rev Cancer 5, 505-15 (2005)), the effect of compound 2 on focal adhesion sites in 4T1 cells was assessed by immunostaining with anti-FAK antibodies, the results of which are shown in FIG. 4A. […] It is noteworthy that the disruption of actin stress fibers and focal adhesion by compound 2 is reminiscent of that induced by mannitol in neuroblastoma cells. Kim et al. J Biol Chem 277, 27393-400 (2002). As mannitol-induced cytoskeletal changes were preceded by the degradation of FAK, the effects of compound 2 relative to VES, TS-1, and compounds 1 and 3, each at 5 μM, on FAK protein stability in 4T1 cells was investigated by Western blotting.

4T1 cells [4] = test: F-actin immunostaining (actin cytoskeletal structure); assay type: cell-based, mouse; conditions: for reduction in the fluorescent intensity of F-actin relative to the DMSO control: 4 h, 4T1 cells; for effect on actin cytoskeleton (stress fibers, lamellipodia; in words): 4 hours of exposure, FIG. 3B
Procedure: F-actin Immunostaining To assess the effect of test compounds on actin cytoskeletal structures, cells were seeded onto coverslips in six-well plates and incubated overnight, followed by exposure to individual agents at the indicated concentrations for 4 h in 2% FBS-containing RPMI 1640 medium. Cells were then fixed in 3.7% formaldehyde, permeabilized with PBS containing 0.1% Triton X-100 and 0.1% BSA for 1 h, and then incubated with Alexa Fluor 488 phallotoxin staining solution (Molecular Probes, Inc., Eugene, Oreg.) for 30 min. Nuclear counterstaining was achieved by use of 4,6-diamidino-2-phenylindole (DAPI)-containing mounting medium. Immunocytochemically labeled cells were visualized and images captured using a Zeiss microscope (LSM510) with Argon and HeNe lasers, appropriate filters (excitation wavelengths were 488 nm and 543 nm), and a 63×1.4 numerical aperture water immersion lens. Differences in fluorescence intensity were calculated from comparisons of the control sample with each of the treatment samples under the same threshold using MacBiophotonic ImageJ software (National Institutes of Health) and were expressed as percentages of the fluorescent intensity of the untreated control. Statistical significance was evaluated using Student's t-test and considered significant at P<0.05.

[5] = system: focal adhesion kinase (FAK); test: Focal adhesion sites by immunostaining with anti-FAK antibody; assay type: cell-based, mouse; conditions: 2.5 μM, 1 h, 4T1 cells
Procedure: as §1

[6] = Mus musculus, 4T1, adhesion to Matrigel-coated surface, FIG. 2B, read-out: IC50, inhibiting 4T1 cell adhesion

Compound	inhibition of serum-induced 4T1 cell migration (in words) (4T1 cells [1]; 5 μM)	anti-adhesion potency (in words) [2]	FAK degradation (in words) [3]	IC50 [2, 6]	also measured
Cc1c(C)c2c(c(C)c1OCC(=O)O)CCC(C)(CCCC(C)CCCC(C)CCCC(C)C)O2 (stereo not drawn) [α-tocopheryloxyacetic acid]	–	–	–	–	effect on breast tumor growth and lung metastasis (in words) (breast tumor): suppress breast tumor growth and to reduce lung metastasis
Cc1c(C)c2c(c(C)c1OC(=O)CCC(=O)O)CCC(C)(CCCC(C)CCCC(C)C)O2 (stereo not shown) [TS-1]	little effect	substantially improved potency vis-à-vis VES	less evident or not appreciable	–	IC50 ([2]; adhesion to Matrigel-coated surface, FIG. 2B, read-out: IC50, inhibiting 4T1 cell adhesion): 2500 nM; anti-adhesion activity relative to VES (FIG. 2A, in words) [2]: significantly improved potencies
Cc1c(C)c2c(c(C)c1OCC(=O)O)CCC(C)(C=CCC(C)CCCC(C)C)O2 (stereo not shown) [compound 2, [2-(4,8-Dimethyl-non-1-enyl)-2,5,7,8-tetramethyl-chroman-6-yloxy]-acetic acid]	effective in inhibiting cell migration	–	induced FAK degradation	600 nM	reduction in the fluorescent intensity of F-actin relative to the DMSO control (4T1 cells [4]; 5 μM): 84%; effect on actin cytoskeleton (stress fibers, lamellipodia; in words) (4T1 cells [4]; 5 μM): rapid dissolution of stress fiber and impairment of lamellipodia formation; IC50 ([2]; Mus musculus, 4T1, summary statement b23, read-out: IC50, blocking the adhesion of 4T1 metastatic breast cancer cells): 600 nM; effect on focal adhesion sites (FAK punctate staining; in words) [5]: loss of focal adhesion sites; also recorded: no longer detectable
Cc1c(C)c2c(c(C)c1OC(=O)CCC(=O)O)CC[C@@](C)(CCC[C@H](C)CCC[C@H](C)CCCC(C)C)O2 [VES, α-tocopheryl succinate, reference compound]	–	modest inhibitory effect	less evident or not appreciable	–	inhibition of serum-induced 4T1 cell migration (in words) (4T1 cells [1]; 50 μM): little effect
Cc1c(C)c2c(c(C)c1OC(=O)CCC(=O)O)CCC(C)(CCCC(C)C)O2 (stereo not shown) [TS-2]	–	substantially improved potency vis-à-vis VES	–	–	anti-adhesion activity relative to VES (FIG. 2A, in words) [2]: to a lesser extent
Cc1c(C)c2c(c(C)c1OC(=O)CCC(=O)O)CCC(C)(C=CCC(C)CCCC(C)C)O2 (stereo not shown) [compound 1, Succinic acid mono-[2-(4,8-dimethyl-non-1-enyl)-2,5,7,8-tetramethyl-chroman-6-yl]ester]	effective in inhibiting cell migration	multifold improvement in the anti-adhesion potency	–	1300 nM	–
Cc1c(C)c2c(c(C)c1OCC(=O)O)CCC(C)(CCCC(C)CCCC(C)C)O2 (stereo not shown) [compound 3, [2-(4,8-Dimethyl-nonyl)-2,5,7,8-tetramethyl-chroman-6-yloxy]-acetic acid]	effective in inhibiting cell migration	–	–	2000 nM	reduction in the fluorescent intensity of F-actin relative to the DMSO control (4T1 cells [4]; 10 μM): 70%; effect on actin cytoskeleton (stress fibers, lamellipodia; in words) (4T1 cells [4]; 10 μM): rapid dissolution of stress fiber and impairment of lamellipodia formation
